Data reported in PMC10892041, “Vanadium Complexes with Thioanilide Derivatives of Amino Acids: Inhibition of Human Phosphatases and Specificity in Various Cell Models of Metabolic Disturbances” (Pharmaceuticals, 2024).
Read-outs that look alike come from different tables or passages of the source.

Key:
PTP1B = target: T1, PTP1B (Homo sapiens, UniProt P18031); assay: Inhibition of human recombinant tyrosine phosphatase PTP1B (DiFMUP fluorescence); format: biochemical; settings: for Inhibition of PTP1B, percentage of inhibition of the control: 1 µM, control solvent only, SD did not exceed 6%
T1 construct: purchased Sigma-Aldrich
T1 sequence (P18031 1-435): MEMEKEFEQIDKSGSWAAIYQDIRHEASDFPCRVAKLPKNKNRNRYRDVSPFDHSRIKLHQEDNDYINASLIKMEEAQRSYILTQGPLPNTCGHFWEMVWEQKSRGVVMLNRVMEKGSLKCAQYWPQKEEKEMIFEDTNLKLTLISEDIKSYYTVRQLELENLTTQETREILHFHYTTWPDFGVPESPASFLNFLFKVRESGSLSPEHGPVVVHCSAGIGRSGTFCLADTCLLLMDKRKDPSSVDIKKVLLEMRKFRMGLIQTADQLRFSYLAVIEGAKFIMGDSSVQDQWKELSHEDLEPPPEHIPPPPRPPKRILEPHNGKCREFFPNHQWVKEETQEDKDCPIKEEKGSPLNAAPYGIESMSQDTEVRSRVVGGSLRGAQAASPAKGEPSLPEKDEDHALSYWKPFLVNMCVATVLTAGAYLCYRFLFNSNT
Experimental: (§1) To determine the ability of the tested compounds for inhibition tyrosine phosphatases, human recombinant proteins were used (Sigma-Aldrich). The reactions were performed in black opaque 384-well microplates (PerkinElmer, Waltham, MA, USA). An equal volume of phosphatase solution in a reaction buffer (25 mM of 3-(N-morpholino)propanesulfonic acid (MOPS), 50 mM NaCl, 1 mM dithiothreitol (DTT), and 0.05% Tween-20 (pH 7.0)) was added to the solution of the tested compound on microplate. These solutions were dispensed using an automated injector. The following final concentrations of the tested phosphatases were used: PTP1B 50 ng/mL, SHP1 400 ng/mL, SHP2 50 ng/mL, LAR 5 ng/mL, and PTPRA 100 ng/mL. After 10 min, a solution of phosphate 6,8-difluoro-4-methyl (DiFMUP; Thermo Fisher Scientific) was added until its final concentration was 0.1 mM. Samples were incubated for 20 miN at 23 °C, and then the measurements of fluorescence intensity (excitation 355 and emission […]) were performed on a multifunctional plate reader POLARstar Omega (BMG Labtech, Ortenberg, Germany). Assays were performed in triplicate. For the screening assays, the final concentration of the tested compounds was 1 µM. The results were expressed as percent inhibition of untreated control (enzyme with vehicle only) for the screening tests. […] IC50 were calculated using GraphPad Prism version 6.0 software (GraphPad Software, Boston, MA, USA).

LAR = target: T2, LAR (Homo sapiens, UniProt P10586); assay: Inhibition of human recombinant tyrosine phosphatase LAR (DiFMUP fluorescence); format: biochemical; settings: for Inhibition of LAR, percentage of inhibition of the control: 1 µM, control solvent only, SD did not exceed 6%
T2 sequence (P10586 1352-1607 limits assumed): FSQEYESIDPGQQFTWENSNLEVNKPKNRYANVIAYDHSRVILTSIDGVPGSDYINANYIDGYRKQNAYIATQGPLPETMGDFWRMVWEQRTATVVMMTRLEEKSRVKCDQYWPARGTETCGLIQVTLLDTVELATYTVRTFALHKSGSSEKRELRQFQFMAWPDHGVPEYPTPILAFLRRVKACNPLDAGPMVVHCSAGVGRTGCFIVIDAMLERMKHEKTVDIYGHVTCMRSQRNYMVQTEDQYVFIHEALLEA
Experimental: as §1

SHP1 = target: T3, SHP1 (Homo sapiens, UniProt P29350); assay: Inhibition of human recombinant tyrosine phosphatase SHP1 (DiFMUP fluorescence); format: biochemical; settings: for Inhibition of SHP1, percentage of inhibition of the control: 1 µM, control solvent only, SD did not exceed 6%
T3 construct: purchased Sigma-Aldrich
Experimental: as §1

SHP2 = target: T4, SHP2 (Homo sapiens, UniProt Q06124); assay: Inhibition of human recombinant tyrosine phosphatase SHP2 (DiFMUP fluorescence); format: biochemical; settings: 1 µM; control solvent only; SD did not exceed 6%
T4 construct: purchased Sigma-Aldrich
T4 sequence (Q06124 1-593): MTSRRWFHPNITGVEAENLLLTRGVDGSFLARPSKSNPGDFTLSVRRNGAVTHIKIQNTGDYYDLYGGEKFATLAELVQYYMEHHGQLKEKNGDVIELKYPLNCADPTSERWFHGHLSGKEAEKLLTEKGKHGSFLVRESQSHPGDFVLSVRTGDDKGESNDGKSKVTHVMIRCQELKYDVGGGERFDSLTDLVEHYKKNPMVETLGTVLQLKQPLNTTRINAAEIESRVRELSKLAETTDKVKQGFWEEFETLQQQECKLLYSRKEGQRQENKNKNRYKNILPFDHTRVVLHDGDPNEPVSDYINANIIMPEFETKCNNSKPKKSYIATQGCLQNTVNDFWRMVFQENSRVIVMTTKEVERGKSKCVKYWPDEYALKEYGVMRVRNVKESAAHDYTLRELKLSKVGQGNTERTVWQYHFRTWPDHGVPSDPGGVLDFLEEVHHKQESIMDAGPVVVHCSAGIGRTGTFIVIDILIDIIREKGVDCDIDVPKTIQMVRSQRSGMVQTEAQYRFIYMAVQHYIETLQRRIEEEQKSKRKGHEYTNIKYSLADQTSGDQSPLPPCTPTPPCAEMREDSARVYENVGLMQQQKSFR
Experimental: as §1

myocytes C2C12 [1] = assay: Scintillation proximity assay, transport of [14C]-deoxy-D-glucose into myocytes C2C12; format: cell-based, mouse; settings: 50 µM; control solvent only
Experimental: The myocyte C2C12 cell line (ATCC CRL-1772), a subclone of myoblasts from mouse muscles, was cultured according to standard protocol in DMEM supplemented with 10% fetal calf serum, 100 IU/ml penicillin, and […] streptomycin at 37 °C in 5% CO2. Cells were pleated on a 96-well microplate and after reach confluence were differentiated in medium with 2% horse serum. Differentiation medium was changed every 72 h.
(§2) Scintillation proximity assay (SPA) is a method to measure the real-time accumulation of radiolabeled substrates by adherent cells with no filtration needed. Radioactivity concentrated closer to the scintillator embedded in the plastic bottom of each well provides a stronger signal than the radiolabeled substrate in the culture medium. Uptake of radiolabeled 2-deoxy-D-[U-14C]-glucose was conducted based on previous descriptions.
After 24 h incubation, the tested complexes were added. After 2 h incubation at 37 °C in 5% CO2, the medium was changed to low-glucose medium (1000 mg/L), and the tested complexes were added again, with further incubation for 4 h being conducted.
(§3) For cells proceeded as above, 2-deoxy-D-[U-14C]-glucose (250–350 mCi/mmol, NEC720A, PerkinElmer) solution in KRB with a total activity of 0.03 mCi was added to each well. […] Non-specific radioactivity was subtracted from each result (cpm). Two independent experiments with triplicates were conducted.

adipocytes 3T3-L1 = assay: Scintillation proximity assay, transport of [14C]-deoxy-D-glucose into adipocytes 3T3-L1; format: cell-based, mouse; settings: 50 µM
Experimental: Adipocytes 3T3-L1 cell line (ATCC CRL-11605) derived from fibroblasts from mouse embryo tissue were cultured according to standard protocol in DMEM medium supplemented with 10% bovine calf serum, 100 IU/mL penicillin, and […] streptomycin at 37 °C in 5% CO2. Cells were seeded in 96-well poly-D-lysine-coated plates and cultured to reach confluency.
as §2
Adipocytes were washed and the medium was changed to the basal medium. After 24 h incubation, the tested complexes were added. After 2 h incubation at 37 °C in 5% CO2, the medium was changed to DMEM medium without glucose, with 0.1% BSA free from fatty acid, […] L-glutamine, and […] pyruvate. The tested complexes were added again, and further incubation for 4 h was conducted.
as §3

CDC25A = target: T5, CDC25A (Homo sapiens, UniProt P30304); assay: Inhibition of human recombinant non-tyrosine phosphatase CDC25A (3-O-methylfluorescein phosphate); format: biochemical
T5 construct: purchased Sigma-Aldrich
T5 sequence (P30304 1-524): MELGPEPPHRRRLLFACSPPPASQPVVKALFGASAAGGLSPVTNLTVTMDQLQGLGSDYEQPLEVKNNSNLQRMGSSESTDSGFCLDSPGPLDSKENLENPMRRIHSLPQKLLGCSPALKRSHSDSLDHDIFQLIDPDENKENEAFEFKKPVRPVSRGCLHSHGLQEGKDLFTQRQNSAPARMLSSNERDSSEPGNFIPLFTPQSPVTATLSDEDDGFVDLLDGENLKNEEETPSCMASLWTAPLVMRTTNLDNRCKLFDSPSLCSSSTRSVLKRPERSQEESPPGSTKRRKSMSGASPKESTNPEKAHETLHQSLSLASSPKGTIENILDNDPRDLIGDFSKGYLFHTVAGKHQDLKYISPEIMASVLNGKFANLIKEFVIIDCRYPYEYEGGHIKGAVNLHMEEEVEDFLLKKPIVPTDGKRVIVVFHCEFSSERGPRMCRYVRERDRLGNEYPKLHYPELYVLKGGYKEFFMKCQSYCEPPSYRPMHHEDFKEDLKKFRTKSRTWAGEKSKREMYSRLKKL
Experimental: (§4) For the inhibition assay of non-tyrosine phosphatases, human recombinant proteins were used (Sigma-Aldrich). The reactions were performed in black opaque 384-well microplates (PerkinElmer). To the solution of the tested complexes, an equal volume of a test solution of phosphatase was added. CDC25A were diluted in reaction buffer to the final concentration of 400 ng/mL as for tyrosine phosphatases (described in the section above), and PPA2 (final 0.5 U/mL) was diluted in 50 mM Tris-HCl, 0.05% Tween-20, and 125 µg/mL protease-free bovine serum albumin (pH 7.0). These solutions were dispensed using an automated injector. After 10 min, a solution of phosphate 6,8-difluoro-4-methyl (DiFMUP; Thermo Fisher Scientific) was added for the PPA2 sample until the final concentration 0.1 mM. For CDC25A samples, 3-O-methylfluorescein phosphate for the final concentration of 0.2 mM was added. Samples were incubated for 180 min at 23 °C, and then the measurements of fluorescence intensity (excitation 355 and emission 560 nm) were performed on a multifunctional plate reader POLARstar Omega (BMG Labtech). Assays were performed in triplicate. The results were expressed as percent of inhibition of untreated control (enzyme with vehicle solvent only).

PP2A = PP2A (Homo sapiens, UniProt P67775); assay: Inhibition of human recombinant non-tyrosine phosphatase PP2A (DiFMUP); format: biochemical
Experimental: as §4

myocytes C2C12 [2] = assay: Viability of myocytes C2C12 after 24 h incubation (resazurin-based reagent); settings: 50 µM
Experimental: Simultaneously with glucose consumption tests, the viability of myocytes C2C12 was examined due to their prolonged 24 h incubation with vanadium complexes.
Prolonged incubation of the cells with vanadium complexes, as was the case during the study of the effect on glucose consumption, more closely corresponds to the actual conditions of clinical use, also allowing for the identification of possible cytotoxic effects. […] A Resazurin-based reagent is reduced proportionally to the metabolic activity of cells as a result of the transference of electrons from NADPH+H^+, the amount of which strictly depends on glucose metabolism.

T3 sequence (P29350 whole entry): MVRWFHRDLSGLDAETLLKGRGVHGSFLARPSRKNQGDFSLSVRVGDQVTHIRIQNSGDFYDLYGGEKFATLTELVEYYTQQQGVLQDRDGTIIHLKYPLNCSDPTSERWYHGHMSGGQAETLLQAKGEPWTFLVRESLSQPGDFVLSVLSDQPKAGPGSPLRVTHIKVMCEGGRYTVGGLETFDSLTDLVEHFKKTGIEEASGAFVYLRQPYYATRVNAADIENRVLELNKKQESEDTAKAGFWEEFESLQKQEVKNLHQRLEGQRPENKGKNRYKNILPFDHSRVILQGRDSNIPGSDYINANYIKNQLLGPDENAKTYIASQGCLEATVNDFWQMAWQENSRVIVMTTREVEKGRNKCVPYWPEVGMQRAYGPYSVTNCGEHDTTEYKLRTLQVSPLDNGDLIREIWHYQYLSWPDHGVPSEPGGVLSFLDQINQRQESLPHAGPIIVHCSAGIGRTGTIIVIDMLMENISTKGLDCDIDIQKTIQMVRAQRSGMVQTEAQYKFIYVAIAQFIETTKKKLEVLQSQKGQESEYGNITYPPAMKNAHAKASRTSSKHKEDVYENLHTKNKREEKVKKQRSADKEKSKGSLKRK
Chain of PP2A (P67775 whole entry): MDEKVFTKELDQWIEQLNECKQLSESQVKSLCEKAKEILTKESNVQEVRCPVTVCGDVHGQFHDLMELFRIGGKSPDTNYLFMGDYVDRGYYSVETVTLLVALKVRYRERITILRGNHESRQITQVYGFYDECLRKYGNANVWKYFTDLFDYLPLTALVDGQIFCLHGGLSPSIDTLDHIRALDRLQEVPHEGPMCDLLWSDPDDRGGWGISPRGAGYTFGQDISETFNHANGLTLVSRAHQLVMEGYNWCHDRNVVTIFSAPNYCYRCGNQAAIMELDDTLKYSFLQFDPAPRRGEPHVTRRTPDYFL

CC(CC(=S)Nc1ccccc1)=NC(CC(C)C)C(=O)[O][V](=[O])([Cl])[Cl] (centres unmarked) [VC070, [VOCl2(L3)]·0.5Et2O·3HCl]
Inhibition of PTP1B, percentage of inhibition of the control (PTP1B): 79% | Inhibition of LAR, percentage of inhibition of the control (LAR): 69% | Inhibition of SHP1, percentage of inhibition of the control (SHP1): 84% | Inhibition of SHP2, percentage of inhibition of the control (SHP2): 88% | Transport of [14C]-deoxy-D-glucose into C2C12 myocytes, % of the control (myocytes C2C12 [1]): 158 ± 10 % of control | Transport of [14C]-deoxy-D-glucose into 3T3-L1 adipocytes, % of control (adipocytes 3T3-L1): 159 % of control

CC(CC(=S)Nc1ccccc1)=NC(Cc1c[nH]c2ccccc12)C(=O)[O][V](=[O])([Cl])[Cl] (centres unmarked) [VC054, [VOCl2(L1)]·1.5Et2O ·6.5HCl]
Inhibition of PTP1B, percentage of inhibition of the control (PTP1B): 78% | Log IC50 ± SD PTP1B (PTP1B; logarithm of IC50): −6.85 ± 0.01 | IC50 (PTP1B; read-out: IC50 PTP1B): 0.141 µM | IC50 (PTP1B; read-out: IC50 for PTP1B): 0.14 µM | IC50 (LAR): 0.112 µM | Inhibition of LAR, percentage of inhibition of the control (LAR): 67% | Inhibition of SHP1, percentage of inhibition of the control (SHP1): 84% | Log IC50 ± SD SHP1 (SHP1; logarithm of IC50): −7.56 ± 0.02 | Inhibition of SHP2, percentage of inhibition of the control (SHP2): 87% | Inhibition of CDC25A, percentage inhibition of control ± SD (CDC25A; 1 µM): 51 ± 2% | Inhibition of CDC25A, percentage inhibition of control ± SD (CDC25A; 10 µM): 65 ± 3% | Inhibition of PP2A, percentage inhibition of control ± SD (PP2A; 1 µM): 41 ± 15% | Inhibition of PP2A, percentage inhibition of control ± SD (PP2A; 10 µM): 75 ± 7% | Cell viability of myocytes C2C12, % of the control (myocytes C2C12 [2]): 84 ± 8%
